The numbers were not newly measured in US12209081B2 (Katholieke Universiteit Leuven, priority 2020, dated 2025), which cites them from elsewhere.

Data set [1] concerns the target TRPM3 (Homo sapiens (Human), UniProt Q9HCF6). As to conditions: Wagner et al., 2008; cited from earlier work.
For data set [2], the system named is TRPM3. As to conditions: wild type mice vs knock-out TRPM3 mice; cited from earlier work.

Where a name gives a salt, the structure may show the parent alone.

TRPM3 (Homo sapiens (Human), UniProt Q9HCF6), sequence (Q9HCF6 whole entry, species assumed): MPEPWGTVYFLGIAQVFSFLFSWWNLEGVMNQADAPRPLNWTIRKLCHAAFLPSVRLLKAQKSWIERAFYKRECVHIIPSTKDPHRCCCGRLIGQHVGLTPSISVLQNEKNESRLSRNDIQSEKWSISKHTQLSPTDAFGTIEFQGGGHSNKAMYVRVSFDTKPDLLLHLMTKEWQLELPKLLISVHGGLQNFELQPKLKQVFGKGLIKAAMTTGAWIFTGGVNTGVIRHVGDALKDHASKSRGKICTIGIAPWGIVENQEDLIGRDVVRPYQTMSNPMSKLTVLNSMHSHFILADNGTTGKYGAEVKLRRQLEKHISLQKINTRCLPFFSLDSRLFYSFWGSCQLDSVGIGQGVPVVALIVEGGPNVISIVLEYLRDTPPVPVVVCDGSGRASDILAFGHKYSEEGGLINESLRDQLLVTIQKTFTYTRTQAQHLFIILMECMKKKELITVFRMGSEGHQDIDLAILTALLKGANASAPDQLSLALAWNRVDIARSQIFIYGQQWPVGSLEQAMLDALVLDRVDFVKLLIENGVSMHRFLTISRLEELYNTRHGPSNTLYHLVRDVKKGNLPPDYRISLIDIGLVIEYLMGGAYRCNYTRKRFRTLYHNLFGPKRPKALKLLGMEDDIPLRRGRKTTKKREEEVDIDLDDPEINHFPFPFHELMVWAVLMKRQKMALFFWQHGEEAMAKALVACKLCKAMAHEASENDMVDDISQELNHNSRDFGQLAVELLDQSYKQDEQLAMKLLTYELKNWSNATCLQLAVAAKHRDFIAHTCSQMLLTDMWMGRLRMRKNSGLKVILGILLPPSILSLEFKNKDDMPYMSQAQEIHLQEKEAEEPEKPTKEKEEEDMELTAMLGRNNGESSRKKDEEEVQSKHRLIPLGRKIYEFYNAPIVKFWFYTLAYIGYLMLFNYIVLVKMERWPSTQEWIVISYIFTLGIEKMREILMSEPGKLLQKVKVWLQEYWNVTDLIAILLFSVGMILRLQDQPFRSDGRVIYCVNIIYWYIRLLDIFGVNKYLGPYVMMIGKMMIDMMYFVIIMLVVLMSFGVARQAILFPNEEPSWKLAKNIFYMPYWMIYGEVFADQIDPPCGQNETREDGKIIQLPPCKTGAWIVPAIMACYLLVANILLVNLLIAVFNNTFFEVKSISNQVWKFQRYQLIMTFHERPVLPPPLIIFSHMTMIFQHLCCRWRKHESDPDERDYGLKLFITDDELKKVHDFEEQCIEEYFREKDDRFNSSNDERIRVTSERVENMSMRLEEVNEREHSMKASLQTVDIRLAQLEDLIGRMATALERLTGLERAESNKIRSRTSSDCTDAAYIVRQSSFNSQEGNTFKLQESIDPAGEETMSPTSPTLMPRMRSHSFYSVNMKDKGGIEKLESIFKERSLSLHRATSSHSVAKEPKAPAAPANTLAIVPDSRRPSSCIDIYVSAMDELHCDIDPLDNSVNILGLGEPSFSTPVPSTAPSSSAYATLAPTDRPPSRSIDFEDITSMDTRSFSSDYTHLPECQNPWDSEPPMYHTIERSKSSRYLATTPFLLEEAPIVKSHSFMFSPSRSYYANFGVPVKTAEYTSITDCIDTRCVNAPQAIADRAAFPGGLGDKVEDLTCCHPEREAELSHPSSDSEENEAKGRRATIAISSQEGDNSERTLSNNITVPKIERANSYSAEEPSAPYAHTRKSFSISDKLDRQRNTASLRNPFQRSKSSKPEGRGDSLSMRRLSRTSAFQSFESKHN

For `CC(=O)C1CCC2C3CC=C4CC(OS(=O)(=O)O)CCC4(C)C3CCC12C` (centres unmarked) [pregnenolone sulfate, Pregnenolone sulfate], at TRPM3 [1], the “activator of TRPM3” value was “potent known activator of TRPM3”. Further, the evoked pain result with TRPM3 [2] is given as “evoked pain in wild type mice but not in knock-out TRPM3 mice”.
